Reference: patent publication EP4741392A1, “1H-PYRAZOLO[4,3-C]PYRIDINE COMPOUND, AND COMPOSITION THEREOF AND USE THEREOF” (Shenzhen TargetRx Co., Ltd., priority 2023, dated 2025)

How the values were obtained:
Type in all cases: cell-based
NIH/3T3 BTK WT cells = assay: Phosphor-BTK(Y223) assay, adherent cells; conditions: Mus musculus, NIH3T3, phosphorylated BTK Y223, NIH/3T3 BTK WT cells; read-out: NIH/3T3 BTK-WT pBTK
Outline: (§1)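 NIH/3T3 cells expressing WT or C481S BTK were pretreated with compound for 0.5 h at 37 °C, then stimulated with 1 mM Na3VO4 (final) for 2 h. Lysates were assayed by HTRF for p-BTK Y223 using the 665/620 nm ratio. IC50 was obtained by nonlinear fit of % inhibition versus 0.5% DMSO control.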

NIH/3T3 BTK C481S cells = assay: Phosphor-BTK(Y223) assay, adherent cells; conditions: Mus musculus, NIH3T3, phosphorylated BTK Y223, NIH/3T3 BTK C481S cells; read-out: NIH/3T3 BTK-C481S pBTK
Outline: as §1

Ramos cells with BTK WT = assay: Phosphor-BTK(Y223) assay, suspended cells; conditions: Homo sapiens, phosphorylated BTK Y223, Ramos cells with BTK WT
Outline: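 Ramos BTK WT cells (2.5 k/well) were treated with compound dilutions for 2 h at 37 °C, then 5 mM Na3VO4 for 3 h. Lysates were read by HTRF p-BTK(Y223) cryptate/d2 antibodies overnight at RT (665/620 ratio). IC50 came from a four-parameter fit of % inhibition versus blank and positive-control wells.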

## COc1ccc(F)cc1C(=O)NCc1ccc(-c2ncc(-c3ccc(OCCN4CCCC4)cn3)c3[nH]nc(N)c23)cc1 [Example 62, N-(4-(3-amino-7-(5-(2-(pyrrolidin-1-yl)ethoxy)pyridin-2-yl)-1H-pyrazolo[4,3-c]pyridin-4-yl)benzyl)-5-fluoro-2-methoxybenzamide]
NIH/3T3 BTK WT cells
  IC50: ≤ 5 nM
NIH/3T3 BTK C481S cells
  IC50: ≤ 5 nM
Ramos cells with BTK WT; Ramos
  IC50: 5 to 10 nM

## COc1ccc(F)cc1C(=O)NCc1ccc(-c2ncc(-c3ccc(C(C)(C)O)cn3)c3[nH]nc(N)c23)cc1 [Example 65, N-(4-(3-amino-7-(5-(2-hydroxypropan-2-yl)pyridin-2-yl)-1H-pyrazolo[4,3-c]pyridin-4-yl)benzyl)-5-fluoro-2-methoxybenzamide]
NIH/3T3 BTK WT cells
  IC50: ≤ 5 nM
NIH/3T3 BTK C481S cells
  IC50: 5 to 10 nM
Ramos cells with BTK WT; Ramos
  IC50: ≤ 5 nM

## COc1ccc(F)cc1C(=O)NCc1ccc(-c2ncc(-c3ccc(CN4CCCCC4)cn3)c3[nH]nc(N)c23)cc1 [Example 66, N-(4-(3-amino-7-(5-(piperidin-1-ylmethyl)pyridin-2-yl)-1H-pyrazolo[4,3-c]pyridin-4-yl)benzyl)-5-fluoro-2-methoxybenzamide]
NIH/3T3 BTK WT cells
  IC50: ≤ 5 nM
NIH/3T3 BTK C481S cells
  IC50: ≤ 5 nM
Ramos cells with BTK WT; Ramos
  IC50: 5 to 10 nM

## COc1ccc(F)cc1C(=O)NCc1ccc(-c2ncc(-c3ccc(CN4CCOCC4)cn3)c3[nH]nc(N)c23)cc1 [Example 67, N-(4-(3-amino-7-(5-(morpholinomethyl)pyridin-2-yl)-1H-pyrazolo[4,3-c]pyridin-4-yl)benzyl)-5-fluoro-2-methoxybenzamide]
NIH/3T3 BTK WT cells
  IC50: ≤ 5 nM
NIH/3T3 BTK C481S cells
  IC50: ≤ 5 nM
Ramos cells with BTK WT; Ramos
  IC50: ≤ 5 nM

## COc1ccc(F)cc1C(=O)NCc1ccc(-c2ncc(-c3ccc(CN4CCN(C)CC4)cn3)c3[nH]nc(N)c23)cc1 [Example 68, N-(4-(3-amino-7-(5-((4-methylpiperazin-1-yl)methyl)pyridin-2-yl)-1H-pyrazolo[4,3-c]pyridin-4-yl)benzyl)-5-fluoro-2-methoxybenzamide]
NIH/3T3 BTK WT cells
  IC50: ≤ 5 nM
NIH/3T3 BTK C481S cells
  IC50: ≤ 5 nM
Ramos cells with BTK WT; Ramos
  IC50: ≤ 5 nM

## COc1ccc(F)cc1C(=O)NCc1ccc(-c2ncc(-c3cc4ccccn4n3)c3[nH]nc(N)c23)cc1 [Example 69, N-(4-(3-amino-7-(pyrazolo[1,5-a]pyridin-2-yl)-1H-pyrazolo[4,3-c]pyridin-4-yl)benzyl)-5-fluoro-2-methoxybenzamide]
NIH/3T3 BTK WT cells
  IC50: ≤ 5 nM
NIH/3T3 BTK C481S cells
  IC50: ≤ 5 nM
Ramos cells with BTK WT; Ramos
  IC50: ≤ 5 nM

## COc1ccc(F)cc1C(=O)NCc1ccc(-c2ncc(-c3cnn4cccnc34)c3[nH]nc(N)c23)cc1 [Example 70, N-(4-(3-amino-7-(pyrazolo[1,5-a]pyrimidin-3-yl)-1H-pyrazolo[4,3-c]pyridin-4-yl)benzyl)-5-fluoro-2-methoxybenzamide]
NIH/3T3 BTK WT cells
  IC50: ≤ 5 nM
NIH/3T3 BTK C481S cells
  IC50: ≤ 5 nM
Ramos cells with BTK WT; Ramos
  IC50: ≤ 5 nM

## COc1ccc(F)cc1C(=O)NCc1ccc(-c2ncc(-c3cc4n(n3)CCN(C)C4)c3[nH]nc(N)c23)cc1 [Example 71, N-(4-(3-amino-7-(5-methyl-4,5,6,7-tetrahydropyrazolo[1,5-a]pyrazin-2-yl)-1H-pyrazolo[4,3-c]pyridin-4-yl)benzyl)-5-fluoro-2-methoxybenzamide]
NIH/3T3 BTK WT cells
  IC50: ≤ 5 nM
NIH/3T3 BTK C481S cells
  IC50: ≤ 5 nM
Ramos cells with BTK WT; Ramos
  IC50: ≤ 5 nM

## CCN1CCn2nc(-c3cnc(-c4ccc(CNC(=O)c5cc(F)ccc5OC)cc4)c4c(N)n[nH]c34)cc2C1 [Example 72, N-(4-(3-amino-7-(5-ethyl-4,5,6,7-tetrahydropyrazolo[1,5-a]pyrazin-2-yl)-1H-pyrazolo[4,3-c]pyridin-4-yl)benzyl)-5-fluoro-2-methoxybenzamide]
NIH/3T3 BTK WT cells
  IC50: ≤ 5 nM
NIH/3T3 BTK C481S cells
  IC50: ≤ 5 nM
Ramos cells with BTK WT; Ramos
  IC50: ≤ 5 nM

## COc1ccc(F)cc1C(=O)NCc1ccc(-c2ncc(-c3ccc(N4CCN(C)CC4)cn3)c3[nH]nc(N)c23)cc1 [Example 73, N-(4-(3-amino-7-(5-(4-methylpiperazin-1-yl)pyridin-2-yl)-1H-pyrazolo[4,3-c]pyridin-4-yl)benzyl)-5-fluoro-2-methoxybenzamide]
NIH/3T3 BTK WT cells
  IC50: ≤ 5 nM
NIH/3T3 BTK C481S cells
  IC50: ≤ 5 nM
Ramos cells with BTK WT; Ramos
  IC50: ≤ 5 nM

## COc1ccc(F)cc1C(=O)NCc1ccc(-c2ncc(-c3ccc(N4CCN(C)C[C@@H]4C)cn3)c3[nH]nc(N)c23)cc1 [Example 74, (S)-N-(-4-(3-amino-7-(5-(2,4-dimethylpiperazin-1-yl)pyridin-2-yl) 1H-pyrazolo[4,3-c]pyridin-4-yl)benzyl)-5-fluoro-2-methoxybenzamide]
NIH/3T3 BTK WT cells
  IC50: ≤ 5 nM
NIH/3T3 BTK C481S cells
  IC50: ≤ 5 nM
Ramos cells with BTK WT; Ramos
  IC50: ≤ 5 nM

## COc1ccc(F)cc1C(=O)NCc1ccc(-c2ncc(-c3ccc(N4CCN(C)C[C@H]4C)cn3)c3[nH]nc(N)c23)cc1 [Example 75, (R)-N-(-4-(3-amino-7-(5-(2,4-dimethylpiperazin-1-yl)pyridin-2-yl) 1H-pyrazolo[4,3-c]pyridin-4-yl)benzyl)-5-fluoro-2-methoxybenzamide]
NIH/3T3 BTK WT cells
  IC50: ≤ 5 nM
NIH/3T3 BTK C481S cells
  IC50: ≤ 5 nM
Ramos cells with BTK WT; Ramos
  IC50: ≤ 5 nM

## COc1ccc(F)cc1C(=O)NCc1ccc(-c2ncc(-c3ccc(N4CCOCC4)cn3)c3[nH]nc(N)c23)cc1 [Example 76, N-(4-(3-amino-7-(5-morpholinopyridin-2-yl)-1H-pyrazolo[4,3-c]pyridin-4-yl)benzyl)-5-fluoro-2-methoxybenzamide]
NIH/3T3 BTK WT cells
  IC50: ≤ 5 nM
NIH/3T3 BTK C481S cells
  IC50: ≤ 5 nM
Ramos cells with BTK WT; Ramos
  IC50: ≤ 5 nM

## COc1ccc(F)cc1C(=O)NCc1ccc(-c2ncc(-c3nccn4cccc34)c3[nH]nc(N)c23)cc1 [Example 77, N-(4-(3-amino-7-(pyrrolo[1,2-a]pyrazin-1-yl)-1H-pyrazolo[4,3-c]pyridin-4-yl)benzyl)-5-fluoro-2-methoxybenzamide]
NIH/3T3 BTK WT cells
  IC50: ≤ 5 nM
NIH/3T3 BTK C481S cells
  IC50: ≤ 5 nM
Ramos cells with BTK WT; Ramos
  IC50: ≤ 5 nM

## COc1ccc(F)cc1C(=O)NCc1ccc(-c2ncc(-c3cc4cnccn4n3)c3[nH]nc(N)c23)cc1 [Example 78, N-(4-(3-amino-7-(pyrazolo[1,5-a]pyrazin-2-yl)-1H-pyrazolo[4,3-c]pyridin-4-yl)benzyl)-5-fluoro-2-methoxybenzamide]
NIH/3T3 BTK WT cells
  IC50: ≤ 5 nM
NIH/3T3 BTK C481S cells
  IC50: ≤ 5 nM
Ramos cells with BTK WT; Ramos
  IC50: ≤ 5 nM

## COc1ccc(F)cc1C(=O)NCc1ccc(-c2ncc(-c3ccc(NC(=O)C4CC4)cn3)c3[nH]nc(N)c23)cc1 [Example 79, N-(4-(3-amino-7-(5-(cyclopropaneformamido)pyridin-2-yl)-1H-pyrazolo[4,3-c]pyridin-4-yl)benzyl)-5-fluoro-2-methoxybenzamide]
NIH/3T3 BTK WT cells
  IC50: 5 to 10 nM
NIH/3T3 BTK C481S cells
  IC50: 10 to 50 nM
Ramos cells with BTK WT
  IC50: 5 to 10 nM

## COc1ccc(F)cc1C(=O)NCc1ccc(-c2ncc(-c3cc(NC(=O)C4CC4)ccn3)c3[nH]nc(N)c23)cc1 [Example 80, N-(4-(3-amino-7-(4-(cyclopropaneformamido)pyridin-2-yl)-1H-pyrazolo[4,3-c]pyridin-4-yl)benzyl)-5-fluoro-2-methoxybenzamide]
NIH/3T3 BTK WT cells
  IC50: 5 to 10 nM
NIH/3T3 BTK C481S cells
  IC50: 5 to 10 nM
Ramos cells with BTK WT
  IC50: ≤ 5 nM

## COc1ccc(F)cc1C(=O)NCc1ccc(-c2ncc(-c3ccc(F)cn3)c3[nH]nc(N)c23)c(F)c1 [Example 82, N-(4-(3-amino-7-(5-fluoropyridin-2-yl)-1H-pyrazolo[4,3-c]pyridin-4-yl)-3-fluorobenzyl)-5-fluoro-2-methoxybenzamide]
NIH/3T3 BTK WT cells
  IC50: ≤ 5 nM
NIH/3T3 BTK C481S cells
  IC50: ≤ 5 nM
Ramos cells with BTK WT; Ramos
  IC50: 10 to 50 nM

## COc1ccc(F)cc1C(=O)NCc1ccc(-c2nc(C)c(-c3ncccn3)c3[nH]nc(N)c23)cc1 [Example 84, N-(4-(3-amino-6-methyl-7-(pyrimidin-2-yl)-1H-pyrazolo[4,3-c]pyridin-4-yl)benzyl)-5-fluoro-2-methoxybenzamide]
NIH/3T3 BTK WT cells
  IC50: 5 to 10 nM
NIH/3T3 BTK C481S cells
  IC50: 10 to 50 nM
Ramos cells with BTK WT; Ramos
  IC50: 5 to 10 nM

## COc1ccc(F)cc1C(=O)NCc1ccc(-c2nc(C(F)F)c(-c3ncccn3)c3[nH]nc(N)c23)cc1 [Example 85, N-(4-(3-amino-6-(difluoromethyl)-7-(pyrimidin-2-yl)-1H-pyrazolo[4,3-c]pyridin-4-yl)benzyl)-5-fluoro-2-methoxybenzamide]
NIH/3T3 BTK WT cells
  IC50: ≤ 5 nM
NIH/3T3 BTK C481S cells
  IC50: 5 to 10 nM
Ramos cells with BTK WT; Ramos
  IC50: ≤ 5 nM

## COc1ccc(F)cc1C(=O)NCc1ccc(-c2nc(C3CCSCC3)cc3[nH]nc(N)c23)cc1 [Example 91, N-(4-(3-amino-6-(tetrahydro-2H-thiopyran-4-yl)-1H-pyrazolo[4,3-c]pyridin-4-yl)benzyl)-5-fluoro-2-methoxybenzamide]
NIH/3T3 BTK WT cells
  IC50: ≤ 5 nM
NIH/3T3 BTK C481S cells
  IC50: 5 to 10 nM
Ramos cells with BTK WT; Ramos
  IC50: 5 to 10 nM

## C=CC(=O)N1CCCC(c2cc3[nH]nc(N)c3c(-c3ccc(CNC(=O)c4cc(F)ccc4OC)cc3)n2)C1 (stereo not drawn) [Example 96, N-(4-(6-(1-acryloylpiperidin-3-yl)-3-amino-1H-pyrazolo[4,3-c]pyridin-4-yl)benzyl)-5-fluoro-2-methoxybenzamide]
NIH/3T3 BTK WT cells
  IC50: 10 to 50 nM
NIH/3T3 BTK C481S cells
  IC50: > 50 nM
Ramos cells with BTK WT; Ramos
  IC50: ≤ 5 nM

## COc1ccc(F)cc1C(=O)NCc1ccc(-c2ncc(-c3nccn4nccc34)c3[nH]nc(N)c23)cc1 [Example 98, N-(4-(3-amino-7-(pyrazolo[1,5-a]pyrazin-4-yl)-1H-pyrazolo[4,3-c]pyridin-4-yl)benzyl)-5-fluoro-2-methoxybenzamide]
NIH/3T3 BTK WT cells
  IC50: ≤ 5 nM
NIH/3T3 BTK C481S cells
  IC50: ≤ 5 nM
Ramos cells with BTK WT; Ramos
  IC50: ≤ 5 nM

## COc1ccc(F)cc1C(=O)NCc1ccc(-c2ncc(-c3nc4ccccc4s3)c3[nH]nc(N)c23)cc1 [Example 99, N-(4-(3-amino-7-(benzo[d]thiazol-2-yl)-1H-pyrazolo[4,3-c]pyridin-4-yl)benzyl)-5-fluoro-2-methoxybenzamide]
NIH/3T3 BTK WT cells
  IC50: ≤ 5 nM
NIH/3T3 BTK C481S cells
  IC50: 5 to 10 nM
Ramos cells with BTK WT; Ramos
  IC50: ≤ 5 nM
